# Measurements from patent US7319109B2, “Farnesoid X receptor agonists” (Smith Kline Beecham Corporation, priority 2002, dated 2008).
# Biological target: T1, Human FXRα Ligand Binding Domain (FXRα LBD) (Homo sapiens, UniProt Q96RI1)
# T1 construct: polyhistidine (N); made in house; host or cells: E. coli BL21 (DE3), pRSET-A vector
# T1 sequence (Q96RI1 222-472 isoform Q96RI1-2): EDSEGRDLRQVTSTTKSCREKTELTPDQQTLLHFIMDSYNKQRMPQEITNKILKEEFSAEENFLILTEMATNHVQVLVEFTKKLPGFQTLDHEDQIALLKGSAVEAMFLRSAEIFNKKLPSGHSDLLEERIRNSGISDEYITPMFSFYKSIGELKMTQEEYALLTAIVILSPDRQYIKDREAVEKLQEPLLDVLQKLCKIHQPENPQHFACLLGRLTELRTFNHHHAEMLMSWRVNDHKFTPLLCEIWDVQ
# Experiment: FXR Affinity Binding Assay: ligand mediated cofactor peptide (SRC-1 LCD2, 676-700) interaction, time resolved fluorescence
# Conditions: FXRα LBD-APC / europium labeled SRC-1 peptide, TRF signal, at least 2 hours at room temperature; read-out: Activity (pEC50) (converted)
# Method: Determination of a ligand mediated cofactor peptide interaction to quantify ligand binding to the nuclear receptor Farnasoid X Receptor (FXR). The method measures the ability of putative ligands to modulate the interaction between the purified bacterial expressed FXRα (LBD) and a synthetic biotinylated peptide based on residues 676-700 of SRC-1(LCD2, 676-700). […] Detection of the associated complex is measured by time resolved fluorescence (TRF). The purified LBD of FXR is labeled with biotin then mixed with stoichiometric amounts of APC labeled streptavidin (Molecular Probes). The biotinylated peptide is then mixed with a ½ stoichiometric amount of europium labeled streptavidin (Wallac Inc). Each is then blocked with a 5 fold excess of biotin and allowed to equilibrate for 15 min. Equimolar amounts of receptor and peptide are mixed together and allowed to equilibrate for at least 30 min prior to the addition to either a variable or constant concentrations of the sample for which the affinity is to be determined. After equilibration, the time-resolved fluorescent signal is quantitated using a fluorescent plate reader. The affinity of the test compound is estimated from a plot of fluorescence versus concentration of test compound added.
# Ligands that promote the complex formation induce a concentration-dependent increase in time-resolved fluorescent signal.
# Human FXRα Ligand Binding Domain (FXRα LBD) was expressed in E.coli strain BL21 (DE3) as an amino-terminal polyhistidine tagged fusion protein. Expression was under the control of an IPTG inducible T7 promoter. DNA encoding this recombinant protein was subcloned into the pRSET-A expression vector (Invitrogen). The coding sequence of Human FXRα LBD was derived from Genbank accession number U 68233 (amino acids 222 to 472).
# Routinely, 30-40 g cell paste (equivalent to 2-3 liters of the fermentation batch) was resuspended in 200-250 mL TBS, pH 7.2 (25mM Tris, 150 mM NaCl). Cells were lysed by passing 3 times through a French Press and cell debris was removed by centrifugation (30 minutes, 20,000 g, 4° C.). The cleared supernatant was filtered through course pre-filters, and TBS, pH 7.2, containing 500 mM imidazole was added to obtain a final imidazole concentration of 50 mM. This lysate was loaded onto a column (6×8 cm) packed with Sepharose [Ni^++ charged]Chelation resin (Pharmacia) and pre-equilibrated with TBS pH 7.21 50 mM imidazole. After washing to baseline absorbance with equilibration buffer, the column was washed with one column volume of TBS pH 7.2 containing 90 mM imidazole. FXRαLBD was eluted directly with 365 mM imidazole. Column fractions were pooled and dialyzed against TBS, pH 7.2, containing 0.5 mM EDTA and 5 mM DTT. The dialyzed protein sample was concentrated using Centri-prep 10 K (Amicon) and subjected to size exclusion, using a column (3×90 cm) packed with Sepharose S-75 resin (Pharmacia) pre-equilibrated with TBS, pH 7.2, containing 0.5 mM EDTA and 5 mM DTT.
# Purified FXRα LBD was desalted/buffer exchanged using PD-10 gel filtration columns into PBS [100 mM NaPhosphate, pH 7.2, 150 mM NaCl]. FXRα LBD was diluted to approximately 10 μM in PBS and five-fold molar excess of NHS-LC-Biotin (Pierce) was added in a minimal volume of PBS. This solution was incubated with gentle mixing for 30 minutes at room temperature. The biotinylation modification reaction was stopped by the addition of 2000× molar excess of Tris-HCl, pH 8. The modified FXRα LBD was dialyzed against 4 buffer changes, each of at least 50 volumes, PBS containing 5 mM DTT, 2 mM EDTA and 2% sucrose.
row,SMILES,EC50
1,"Cc1cc(OCc2c(-c3c(Cl)cccc3Cl)noc2C(C)C)ccc1N(C)Cc1ccc(C(=O)O)o1 [Example 4, 5-[(4-{[3-(2,6-Dichlorophenyl)-5-isopropyl-4-isoxazolyl]methoxy}-2-dimethylanilino)methyl]-2-furoic acid]",102 to 1000 nM
2,"COC(=O)c1ccc(OCc2ccc(OCc3c(-c4c(Cl)cccc4Cl)noc3C(C)C)cc2Cl)cc1 [Example 75, Methyl 4-[(2-chloro-4-{[3-(2,6-dichlorophenyl)-5-isopropylisoxazol-4-yl]methoxy}benzyl)oxy]benzoate]",102 to 1000 nM
3,"CCN(c1ccc(OCc2c(-c3c(Cl)cccc3Cl)noc2C(C)C)cc1)S(=O)(=O)c1cccc(C(=O)OC)c1 [Example 45, Methyl 3-{[(4-{[3-(2,6-dichlorophenyl)-5-isopropylisoxazol-4-yl]methoxy}phenyl)(ethyl)-amino]sulfonyl}benzoate]",1020 to 10000 nM
4,"CC(C)c1onc(-c2c(Cl)cccc2Cl)c1COc1ccc(OCc2cccc(C(=O)O)c2)c(Cl)c1 [Example 101, 3-[(2-Chloro-4-{[3-(2,6-dichlorophenyl)-5-isopropylisoxazol-4-yl]methoxy}phenoxy)-methyl]benzoic acid]",102 to 1000 nM
5,"Cc1cc(OCc2c(-c3c(Cl)cccc3Cl)noc2C(C)C)ccc1N(C)Cc1cccc(CO)c1 [Example 11, {3-[(4-{[3-(2,6-Dichlorophenyl)-5-isopropyl-4-isoxazolyl]methoxy}-2-dimethylanilino)methyl]phenyl}methanol]",< 100 nM
6,"Cc1cc(OCc2c(Cc3c(Cl)cccc3Cl)noc2C(C)C)ccc1N(C)Cc1cccc(C(=O)O)c1 [Example 15, 3-[(4-{[3-(2,6-Dichlorobenzyl)-5-isopropyl-4-isoxazolyl]methoxy}-2-dimethylanilino)methyl]benzoic acid]",102 to 1000 nM
7,"COC(=O)c1ccc(S(=O)(=O)N(C)c2ccc(OCc3c(-c4c(Cl)cccc4Cl)noc3C(C)C)cc2C)cc1 [Example 59, Methyl 4-{[(4-{[3-(2,6-dichlorophenyl)-5-isopropylisoxazol-4-yl]methoxy}-2-methyl-phenyl)(methyl)amino]sulfonyl}benzoate]",102 to 1000 nM
8,"COC(=O)c1ccc(COc2ccc(OCc3c(-c4c(Cl)cccc4Cl)noc3C(C)C)cc2C)cc1 [Example 98, Methyl 4-[(4-{[3-(2,6-dichlorophenyl)-5-isopropylisoxazol-4-yl]methoxy}-2-methylphenoxy)methyl]benzoate]",1020 to 10000 nM

# More lines, now with the values ahead:
row,EC50,SMILES
1,102 to 1000 nM,"CC(C)c1onc(-c2ccccc2OC(F)(F)F)c1COc1ccc(N(C)C(=O)c2cccc(C(=O)O)c2)c(Cl)c1 [Example 34, 3-{[2-Chloro-4-({5-isopropyl-3-[2-(trifluoromethoxy)phenyl]-4-isoxazolyl}methoxy)methylanilino]carbonyl}benzoic acid]"
2,< 100 nM,"Cc1cc(OCc2c(-c3ccccc3OC(F)(F)F)noc2C(C)C)ccc1N(C)Cc1cccc(C(=O)O)c1 [Example 20, 3-{[4-({5-Isopropyl-3-[2-(trifluoromethoxy)phenyl]-4-isoxazolyl}methoxy)-2-dimethylanilino]methyl}benzoic acid]"
3,102 to 1000 nM,"CC(C)c1onc(-c2c(Cl)cccc2Cl)c1COc1ccc(N(C)C(=O)c2cccc(C(=O)O)c2)c(Cl)c1 [Example 30, 3-[(2-Chloro-4-{[3-(2,6-dichlorophenyl)-5-isopropyl-4-isoxazolyl]methoxy}methylanilino)carbonyl]benzoic acid]"
4,102 to 1000 nM,"CC(C)c1onc(-c2ccccc2OC(F)(F)F)c1COc1ccc(N(C)S(=O)(=O)c2cccc(C(=O)O)c2)c(Cl)c1 [Example 72, 3-{[[2-Chloro-4-({5-isopropyl-3-[2-(trifluoromethoxy)phenyl]isoxazol-4-yl}methoxy)-phenyl](methyl)amino]sulfonyl}benzoic acid]"
5,102 to 1000 nM,"COC(=O)c1cccc(SCc2ccc(OCc3c(-c4ccccc4OC(F)(F)F)noc3C(C)C)cc2Cl)c1 [Example 88, Methyl 3-{[2-chloro-4-({5-isopropyl-3-[2-(trifluoro-methoxy)phenyl]isoxazol-4-yl}methoxy)benzyl]thio}benzoate]"
